Source: US20260125382A1, “COMPOUNDS FOR INHIBITING OR DEGRADING CDK2 AND/OR CDK9 AND MEDICINAL USE THEREOF” (KOREA RESEARCH INSTITUTE OF CHEMICAL TECHNOLOGY, priority 2022, published 2026)

Columns and labels:
CDK2 = target: T1, CDK2 (Homo sapiens, UniProt P24941); test: CDK protein degradation activity (Western blotting), CDK2; assay type: cell-based; conditions: MDA-MB-231 cells, 16 hours, Western blot
T1 construct: endogenous in cells; host or cells: MDA-MB-231
How it was run: (§1)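 Degradation is judged from CDK2 and CDK9 band intensity relative to tubulin and DMSO-treated cells, after 16 h exposure of MDA-MB-231 cells to three compound concentrations (100 nM, 1 μM, 10 μM).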

CDK9 = target: T2, CDK9 (Homo sapiens, UniProt P50750); test: CDK protein degradation activity (Western blotting), CDK9; assay type: cell-based; conditions: MDA-MB-231 cells, 16 hours, Western blot
T2 construct: endogenous in cells; host or cells: MDA-MB-231
How it was run: as §1

T2 sequence (P50750 whole entry): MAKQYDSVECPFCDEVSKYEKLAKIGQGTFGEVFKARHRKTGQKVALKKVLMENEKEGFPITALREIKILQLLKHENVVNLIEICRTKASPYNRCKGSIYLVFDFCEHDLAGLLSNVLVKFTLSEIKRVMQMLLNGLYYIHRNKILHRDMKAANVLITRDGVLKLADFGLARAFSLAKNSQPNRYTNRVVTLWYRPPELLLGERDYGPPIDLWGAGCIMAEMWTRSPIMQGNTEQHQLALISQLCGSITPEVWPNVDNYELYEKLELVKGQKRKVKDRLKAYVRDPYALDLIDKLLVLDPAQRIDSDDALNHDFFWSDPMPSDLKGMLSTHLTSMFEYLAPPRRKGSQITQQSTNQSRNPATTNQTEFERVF

O=C1CC[C@H](N2C(=O)c3cccc(NCC(=O)N4CCC(CN5CCN(c6ccc(Nc7ncnc8c7ncn8[C@H]7C[C@@H](NC(=O)c8c(Cl)cccc8Cl)C7)cc6)CC5)CC4)c3C2=O)C(=O)N1 [Compound 165, 2,6-dichloro-N-((1s,3s)-3-(6-((4-(4-((1-((2-(2,6-dioxopiperidin-3-yl)-1,3-dioxoisoindolin-4-yl)glycyl)piperidin-4-yl)methyl)piperazin-1-yl)phenyl)amino)-9H-purin-9-yl)cyclobutyl)benzamide] was tested, and the “Enzyme degradation CDK2 (% remaining) @ 0.1 μM” value (CDK2) was 10/10/10%, the “Enzyme degradation CDK2 (% remaining) @ 1 μM” value (CDK2) was 10/10/10% and the “Enzyme degradation CDK2 (% remaining) @ 10 μM” value (CDK2) was 10/10/10%. For the same molecule, the “Enzyme degradation CDK9 (% remaining) @ 0.1 μM” value (CDK9) was 0/0/0%, the “Enzyme degradation CDK9 (% remaining) @ 1 μM” value (CDK9) was 0/0/0% and the “Enzyme degradation CDK9 (% remaining) @ 10 μM” value (CDK9) was 0/0/0%.

O=C1CC[C@H](N2C(=O)c3cccc(N4CCC(CN5CCC(CNc6ncnc7c6ncn7C6CC(NC(=O)c7c(Cl)cccc7Cl)C6)CC5)CC4)c3C2=O)C(=O)N1 (stereo partly drawn) [Compound 172, 2,6-dichloro-N-((1s,3s)-3-(6-(((1-((1-(2-(2,6-dioxopiperidin-3-yl)-1,3-dioxoisoindolin-4-yl)piperidin-4-yl)methyl)piperidin-4-yl)methyl)amino)-9H-purin-9-yl)cyclobutyl)benzamide] was tested, and the “Enzyme degradation CDK2 (% remaining) @ 0.1 μM” value (CDK2) was 10%, the “Enzyme degradation CDK2 (% remaining) @ 1 μM” value (CDK2) was 20% and the “Enzyme degradation CDK2 (% remaining) @ 10 μM” value (CDK2) was 20%. For the same molecule, the “Enzyme degradation CDK9 (% remaining) @ 0.1 μM” value (CDK9) was 50%, the “Enzyme degradation CDK9 (% remaining) @ 1 μM” value (CDK9) was 0% and the “Enzyme degradation CDK9 (% remaining) @ 10 μM” value (CDK9) was 0%.

N#Cc1cccc(C(=O)N[C@H]2C[C@@H](n3cnc4c(Nc5ccc(N6CCN(CC7CCN(c8ccc9c(c8)CN(C8CCC(=O)NC8=O)C9=O)CC7)CC6)cc5)ncnc43)C2)n1 (stereo partly drawn) [Compound 441, 6-cyano-N-((1s,3s)-3-(6-((4-(4-((1-(2-(2,6-dioxopiperidin-3-yl)-1-oxoisoindolin-5-yl)piperidin-4-yl)methyl)piperazin-1-yl)phenyl)amino)-9H-purin-9-yl)cyclobutyl)picolinamide] was tested, and the “Enzyme degradation CDK2 (% remaining) @ 0.1 μM” value (CDK2) was 30%, the “Enzyme degradation CDK2 (% remaining) @ 1 μM” value (CDK2) was 30% and the “Enzyme degradation CDK2 (% remaining) @ 10 μM” value (CDK2) was 40%. The “Enzyme degradation CDK9 (% remaining) @ 0.1 μM” value (CDK9) was 10/10/10%, the “Enzyme degradation CDK9 (% remaining) @ 1 μM” value (CDK9) was 10/10/10% and the “Enzyme degradation CDK9 (% remaining) @ 10 μM” value (CDK9) was 10/10/10%.

O=C1CCC(N2C(=O)c3ccc(NCC(=O)N4CCC(CN5CCC(CNc6ncnc7c6ncn7[C@H]6C[C@@H](NC(=O)Cc7ccccc7)C6)CC5)CC4)cc3C2=O)C(=O)N1 (stereo partly drawn) [Compound 185, N-((1s,3s)-3-(6-(((1-((1-((2-(2,6-dioxopiperidin-3-yl)-1,3-dioxoisoindolin-5-yl)glycyl)piperidin-4-yl)methyl)piperidin-4-yl)methyl)amino)-9H-purin-9-yl)cyclobutyl)-2-phenylacetamide] was tested, and the “Enzyme degradation CDK2 (% remaining) @ 0.1 μM” value (CDK2) was 100/100/100%, the “Enzyme degradation CDK2 (% remaining) @ 1 μM” value (CDK2) was 100/100/100% and the “Enzyme degradation CDK2 (% remaining) @ 10 μM” value (CDK2) was 100/100/100%. The “Enzyme degradation CDK9 (% remaining) @ 0.1 μM” value (CDK9) was 0/0/0%, the “Enzyme degradation CDK9 (% remaining) @ 1 μM” value (CDK9) was 0/0/0% and the “Enzyme degradation CDK9 (% remaining) @ 10 μM” value (CDK9) was 0/0/0%.

O=C1CC[C@H](N2C(=O)C=C(Nc3cccc(CC(=O)N4CCC5(CC4)CC(N4CCN(c6ccc(Nc7ncnc8c7ncn8[C@H]7C[C@@H](NC(=O)Cc8ccccc8)C7)cc6)CC4)C5)c3)C2=O)C(=O)N1 [Compound 192, N-((1s,3s)-3-(6-((4-(4-(7-(2-(3-((1-(2,6-dioxopiperidin-3-yl)-2,5-dioxo-2,5-dihydro-1H-pyrrol-3-yl)amino)phenyl)acetyl)-7-azaspiro[3.5]nonan-2-yl)piperazin-1-yl)phenyl)amino)-9H-purin-9-yl)cyclobutyl)-2-phenylacetamide] was tested, and the “Enzyme degradation CDK2 (% remaining) @ 0.1 μM” value (CDK2) was 70%, the “Enzyme degradation CDK2 (% remaining) @ 1 μM” value (CDK2) was 70% and the “Enzyme degradation CDK2 (% remaining) @ 10 μM” value (CDK2) was 50%. The “Enzyme degradation CDK9 (% remaining) @ 0.1 μM” value (CDK9) was 20%, the “Enzyme degradation CDK9 (% remaining) @ 1 μM” value (CDK9) was 20% and the “Enzyme degradation CDK9 (% remaining) @ 10 μM” value (CDK9) was 10%.

O=C1CC[C@H](N2C(=O)c3ccc(N4CC(C(=O)N5CCC(CN6CCC(CCNc7ncnc8c7ncn8[C@H]7C[C@@H](NC(=O)Cc8ccccc8)C7)CC6)CC5)C4)cc3C2=O)C(=O)N1 [Compound 411, N-((1s,3s)-3-(6-((2-(1-((1-(1-(2-(2,6-dioxopiperidin-3-yl)-1,3-dioxoisoindolin-5-yl)azetidin-3-carbonyl)piperidin-4-yl)methyl)piperidin-4-yl)ethyl)amino)-9H-purin-9-yl)cyclobutyl)-2-phenylacetamide] was tested, and the “Enzyme degradation CDK2 (% remaining) @ 0.1 μM” value (CDK2) was 40/40/40%, the “Enzyme degradation CDK2 (% remaining) @ 1 μM” value (CDK2) was 40/40/40% and the “Enzyme degradation CDK2 (% remaining) @ 10 μM” value (CDK2) was 40/40/40%. The “Enzyme degradation CDK9 (% remaining) @ 0.1 μM” value (CDK9) was 10/10/10%, the “Enzyme degradation CDK9 (% remaining) @ 1 μM” value (CDK9) was 10/10/10% and the “Enzyme degradation CDK9 (% remaining) @ 10 μM” value (CDK9) was 10/10/10%.

With Cc1cccc(C(=O)NC2CC(n3cnc4c(Nc5ccc(N6CCN(CCC7CCN(c8ccc9c(c8)C(=O)N([C@H]8CCC(=O)NC8=O)C9=O)CC7)CC6)cc5)ncnc43)C2)n1 (stereo partly drawn) [Compound 380, N-((1s,3s)-3-(6-((4-(4-(2-(1-(2-(2,6-dioxopiperidin-3-yl)-1,3-dioxoisoindolin-5-yl)piperidin-4-yl)ethyl)piperazin-1-yl)phenyl)amino)-9H-purin-9-yl)cyclobutyl)-6-methylpicolinamide] the “Enzyme degradation CDK2 (% remaining) @ 0.1 μM” value (CDK2) was 40%, the “Enzyme degradation CDK2 (% remaining) @ 1 μM” value (CDK2) was 40% and the “Enzyme degradation CDK2 (% remaining) @ 10 μM” value (CDK2) was 30%. For the same molecule, the “Enzyme degradation CDK9 (% remaining) @ 0.1 μM” value (CDK9) was 0/0/0%, the “Enzyme degradation CDK9 (% remaining) @ 1 μM” value (CDK9) was 0/0/0% and the “Enzyme degradation CDK9 (% remaining) @ 10 μM” value (CDK9) was 0/0/0%.

With O=C1CC[C@H](n2nnc3ccc(N4CCC5(CC4)CC(N4CCN(c6ccc(Nc7ncnc8c7ncn8[C@H]7C[C@@H](NC(=O)c8c(Cl)cccc8Cl)C7)cc6)CC4)C5)cc3c2=O)C(=O)N1 [Compound 317, 2,6-dichloro-N-((1s,3s)-3-(6-((4-(4-(7-(3-(2,6-dioxopiperidin-3-yl)-4-oxo-3,4-dihydrobenzo[d][1,2,3]triazin-6-yl)-7-azaspiro[3.5]nonan-2-yl)piperazin-1-yl)phenyl)amino)-9H-purin-9-yl)cyclobutyl)benzamide] the “Enzyme degradation CDK2 (% remaining) @ 0.1 μM” value (CDK2) was 10/10/10%, the “Enzyme degradation CDK2 (% remaining) @ 1 μM” value (CDK2) was 10/10/10% and the “Enzyme degradation CDK2 (% remaining) @ 10 μM” value (CDK2) was 10/10/10%. For the same molecule, the “Enzyme degradation CDK9 (% remaining) @ 0.1 μM” value (CDK9) was 0/0/0%, the “Enzyme degradation CDK9 (% remaining) @ 1 μM” value (CDK9) was 0/0/0% and the “Enzyme degradation CDK9 (% remaining) @ 10 μM” value (CDK9) was 0/0/0%.

Cc1cccc(C(=O)N[C@H]2C[C@@H](n3cnc4c(NCc5ccc(OCCCN6CCN(c7cccc8c7C(=O)N([C@H]7CCC(=O)NC7=O)C8=O)CC6)cc5)ncnc43)C2)n1 [Compound 117, N-((1s,3s)-3-(6-((4-(3-(4-(2-(2,6-dioxopiperidin-3-yl)-1,3-dioxoisoindolin-4-yl)piperazin-1-yl)propoxy)benzyl)amino)-9H-purin-9-yl)cyclobutyl)-6-methylpicolinamide] was tested, and the “Enzyme degradation CDK2 (% remaining) @ 0.1 μM” value (CDK2) was 80/80/80%, the “Enzyme degradation CDK2 (% remaining) @ 1 μM” value (CDK2) was 80/80/80% and the “Enzyme degradation CDK2 (% remaining) @ 10 μM” value (CDK2) was 80/80/80%. For the same molecule, the “Enzyme degradation CDK9 (% remaining) @ 0.1 μM” value (CDK9) was 10%, the “Enzyme degradation CDK9 (% remaining) @ 1 μM” value (CDK9) was 10% and the “Enzyme degradation CDK9 (% remaining) @ 10 μM” value (CDK9) was 0%.

With Cc1cccc(C(=O)N[C@H]2C[C@H](n3cnc4c(NCCCN5CCN(C(=O)CNc6ccc7c(c6)C(=O)N([C@@H]6CCC(=O)NC6=O)C7=O)CC5)ncnc43)C2)n1 [Compound 141, N-((1r,3r)-3-(6-((3-(4-((2-(2,6-dioxopiperidin-3-yl)-1,3-dioxoisoindolin-5-yl)glycyl)piperazin-1-yl)propyl)amino)-9H-purin-9-yl)cyclobutyl)-6-methylpicolinamide] the “Enzyme degradation CDK2 (% remaining) @ 0.1 μM” value (CDK2) was 70%, the “Enzyme degradation CDK2 (% remaining) @ 1 μM” value (CDK2) was 50% and the “Enzyme degradation CDK2 (% remaining) @ 10 μM” value (CDK2) was 60%. The “Enzyme degradation CDK9 (% remaining) @ 0.1 μM” value (CDK9) was 90%, the “Enzyme degradation CDK9 (% remaining) @ 1 μM” value (CDK9) was 80% and the “Enzyme degradation CDK9 (% remaining) @ 10 μM” value (CDK9) was 50%.

In the case of Cc1cccc(C(=O)NC2CC(n3cnc4c(NCCCN5CCN(CC6CCN(C(=O)COc7ccc([C@@H]8CCC(=O)NC8=O)cc7)CC6)CC5)ncnc43)C2)n1 (stereo partly drawn) [Compound 229, N-((1s,3s)-3-(6-((3-(4-((1-(2-(4-(2,6-dioxopiperidin-3-yl)phenoxy)acetyl)piperidin-4-yl)methyl)piperazin-1-yl)propyl)amino)-9H-purin-9-yl)cyclobutyl)-6-methylpicolinamide], the “Enzyme degradation CDK2 (% remaining) @ 0.1 μM” value (CDK2) is reported as 70%, the “Enzyme degradation CDK2 (% remaining) @ 1 μM” value (CDK2) is reported as 90% and the “Enzyme degradation CDK2 (% remaining) @ 10 μM” value (CDK2) is reported as 100%. The “Enzyme degradation CDK9 (% remaining) @ 0.1 μM” value (CDK9) was 20%, the “Enzyme degradation CDK9 (% remaining) @ 1 μM” value (CDK9) was 10% and the “Enzyme degradation CDK9 (% remaining) @ 10 μM” value (CDK9) was 0%.

In the case of Cc1cccc(C(=O)NC2CC(n3cnc4c(NC5CCN(CCOC6CCN(C(=O)CNc7cccc8c7C(=O)N([C@H]7CCC(=O)NC7=O)C8=O)CC6)CC5)ncnc43)C2)n1 (stereo partly drawn) [Compound 46, N-((1s,3s)-3-(6-((1-(2-((1-((2-(2,6-dioxopiperidin-3-yl)-1,3-dioxoisoindolin-4-yl)glycyl)piperidin-4-yl)oxy)ethyl)piperidin-4-yl)amino)-9H-purin-9-yl)cyclobutyl)-6-methylpicolinamide], the “Enzyme degradation CDK2 (% remaining) @ 0.1 μM” value (CDK2) is reported as 80%, the “Enzyme degradation CDK2 (% remaining) @ 1 μM” value (CDK2) is reported as 90% and the “Enzyme degradation CDK2 (% remaining) @ 10 μM” value (CDK2) is reported as 100%. For the same molecule, the “Enzyme degradation CDK9 (% remaining) @ 0.1 μM” value (CDK9) was 20%, the “Enzyme degradation CDK9 (% remaining) @ 1 μM” value (CDK9) was 10% and the “Enzyme degradation CDK9 (% remaining) @ 10 μM” value (CDK9) was 30%.

For O=C1CC[C@@H](c2ccc(OCC(=O)N3CCC(OCCN4CCN(c5ccc(Nc6ncnc7c6ncn7C6CC(NC(=O)Cc7ccccc7)C6)cc5)CC4)CC3)cc2)C(=O)N1 (stereo partly drawn) [Compound 250, N-((1s,3s)-3-(6-((4-(4-(2-((1-(2-(4-(2,6-dioxopiperidin-3-yl)phenoxy)acetyl)piperidin-4-yl)oxy)ethyl)piperazin-1-yl)phenyl)amino)-9H-purin-9-yl)cyclobutyl)-2-phenylacetamide], the “Enzyme degradation CDK2 (% remaining) @ 0.1 μM” value (CDK2) was 60%, the “Enzyme degradation CDK2 (% remaining) @ 1 μM” value (CDK2) was 40% and the “Enzyme degradation CDK2 (% remaining) @ 10 μM” value (CDK2) was 30%. For the same molecule, the “Enzyme degradation CDK9 (% remaining) @ 0.1 μM” value (CDK9) was 40%, the “Enzyme degradation CDK9 (% remaining) @ 1 μM” value (CDK9) was 10% and the “Enzyme degradation CDK9 (% remaining) @ 10 μM” value (CDK9) was 0%.
